Where two headings read alike, the source gives them in different places.
Test system: L-alanine dehydrogenase from Sporolactobacillus sp. 78-3 (FERM BP-2517)
Test: Km-Value of L-alanine dehydrogenase (reductive amination, decrease of NADH at 340 nm)
Type: biochemical
Details: purified enzyme
Experimental: Enzyme activity is measured by the following assay method:
The reaction mixture, 1 ml, in a 1 ml quartz cell is pre-incubated at 37° C. for 5 mins. Dilute enzyme solution, 0.02 ml with 50 mM triethanolamine buffer (pH 8.5) is added thereto and the mixture is stirred to initiate the reaction. Decrease of NADH is measured photometrically at 340 nm during the reaction. Enzyme activity is calculated by the following equation on the linear part of the curve: [formula] wherein T=reaction time (min.); X=dilution ratio.

Row | Compound | Km (substrate NH4+, read-out: Km-Value (NH4+)) [mM] | Km (coenzyme NADH, read-out: Km-Value (NADH)) [mM]
1 | N [NH4^+] | 20 | –
2 | NC(=O)C1=CN([C@@H]2O[C@H](COP(=O)(O)OP(=O)(O)OC[C@H]3O[C@@H](n4cnc5c(N)ncnc54)[C@H](O)[C@@H]3O)[C@@H](O)[C@H]2O)C=CC1 [NADH] | – | 0.011

Source: US5116748A, “Process for the production of L-alanine dehydrogenase from 78-3 FERM BP-2517” (Toyo Jozo Kabushiki Kaisha, priority 1988, dated 1992)
